Test results published in ChEMBL document CHEMBL4382200, “Discovery of Novel 7-Aryl 7-Deazapurine 3'-Deoxy-ribofuranosyl Nucleosides with Potent Activity against Trypanosoma cruzi” (J Med Chem, 2018).
The source made the active and inactive calls. The calls are words filed in the database; no cut-off is given here.

Tests used:
Cytochrome P450 (family) [1] = biological target: T1, Cytochrome P450 (family) (Homo sapiens, UniProt P04798+P05177+P05181+P08684+P10632+P10635+P11509+P11712+P13584+P20813+P20815+P20853+P24462+P24903+P33260+P33261+P51589+P78329+P98187+Q02928+Q08477+Q16678+Q16696+Q5TCH4+Q6VVX0+Q7Z449+Q8TAV3+Q96SQ9+Q9HB55); test: Drug metabolism in human liver microsome S9 fraction assessed as CYP450-mediated metabolism by measuring compound remaining at 5 uM pretreated with NADPH and measured after 15 mins by UPLC-MS/MS analysis; type: ADME, microsomes; settings: liver microsome S9 fraction, read-out: Stability
[2] = Therapeutic index, ratio EC50 for human MRC5 SV2 cells to EC50 for Trypanosoma cruzi Tulahuen CL2 intracellular amastigotes; type: toxicity, cell-based; settings: read-out: Ratio EC50
Trypanosoma cruzi [3] = test: Antiparasitic activity against Trypanosoma cruzi Tulahuen CL2 intracellular amastigotes expressing beta-galactosidase infected in human MRC5 SV2 cells after 7 days by chlorophenol red beta-D-galactopyranoside-based spectrophotometric analysis; type: functional, organism-based; settings: Tulahuen CL2, MRC-5 SV2, 168 h, read-out: EC50
[4] = Cytotoxicity against human MRC5 SV2 cells assessed as reduction in cell viability after 3 days resazurin-based fluorimetric assay; settings: MRC-5 SV2, 72 h
CYP450 [5] = test: Drug metabolism in mouse liver microsome S9 fraction assessed as CYP450-mediated metabolism by measuring compound remaining at 5 uM pretreated with NADPH and measured after 15 mins by UPLC-MS/MS analysis; type: ADME, microsomes; settings: liver microsome S9 fraction, read-out: Stability
CYP450 [6] = test: Drug metabolism in mouse liver microsome S9 fraction assessed as CYP450-mediated metabolism by measuring compound remaining at 5 uM pretreated with NADPH and measured after 30 mins by UPLC-MS/MS analysis; type: ADME, microsomes; settings: liver microsome S9 fraction, read-out: Stability
CYP450 [7] = test: Drug metabolism in mouse liver microsome S9 fraction assessed as CYP450-mediated metabolism by measuring compound remaining at 5 uM pretreated with NADPH and measured after 60 mins by UPLC-MS/MS analysis; type: ADME, microsomes; settings: liver microsome S9 fraction, read-out: Stability
[8] = Drug metabolism in mouse liver microsome S9 fraction assessed as UGT-mediated metabolism by measuring compound remaining at 5 uM pretreated with UDPGA and measured after 15 mins by UPLC-MS/MS analysis; type: ADME, microsomes; settings: microsomes, 0.25 h, 5 µM
UGT [9] = test: Drug metabolism in mouse liver microsome S9 fraction assessed as UGT-mediated metabolism by measuring compound remaining at 5 uM pretreated with UDPGA and measured after 30 mins by UPLC-MS/MS analysis; type: ADME, microsomes; settings: liver microsome S9 fraction, read-out: Stability
UGT [10] = test: Drug metabolism in mouse liver microsome S9 fraction assessed as UGT-mediated metabolism by measuring compound remaining at 5 uM pretreated with UDPGA and measured after 60 mins by UPLC-MS/MS analysis; type: ADME, microsomes; settings: liver microsome S9 fraction, read-out: Stability
[11] = Drug metabolism in rat liver microsome S9 fraction assessed as CYP450-mediated metabolism by measuring compound remaining at 5 uM pretreated with NADPH and measured after 15 mins by UPLC-MS/MS analysis; type: ADME, microsomes; settings: microsomes, 0.25 h, 5 µM
CYP450 [12] = test: Drug metabolism in rat liver microsome S9 fraction assessed as CYP450-mediated metabolism by measuring compound remaining at 5 uM pretreated with NADPH and measured after 30 mins by UPLC-MS/MS analysis; type: ADME, microsomes; settings: liver microsome S9 fraction, read-out: Stability
CYP450 [13] = test: Drug metabolism in rat liver microsome S9 fraction assessed as CYP450-mediated metabolism by measuring compound remaining at 5 uM pretreated with NADPH and measured after 60 mins by UPLC-MS/MS analysis; type: ADME, microsomes; settings: liver microsome S9 fraction, read-out: Stability
UGT [14] = test: Drug metabolism in rat liver microsome S9 fraction assessed as UGT-mediated metabolism by measuring compound remaining at 5 uM pretreated with UDPGA and measured after 15 mins by UPLC-MS/MS analysis; type: ADME, microsomes; settings: liver microsome S9 fraction, read-out: Stability
UGT [15] = test: Drug metabolism in rat liver microsome S9 fraction assessed as UGT-mediated metabolism by measuring compound remaining at 5 uM pretreated with UDPGA and measured after 30 mins by UPLC-MS/MS analysis; type: ADME, microsomes; settings: liver microsome S9 fraction, read-out: Stability
UGT [16] = test: Drug metabolism in rat liver microsome S9 fraction assessed as UGT-mediated metabolism by measuring compound remaining at 5 uM pretreated with UDPGA and measured after 60 mins by UPLC-MS/MS analysis; type: ADME, microsomes; settings: liver microsome S9 fraction, read-out: Stability
CYP450 [17] = test: Drug metabolism in dog liver microsome S9 fraction assessed as CYP450-mediated metabolism by measuring compound remaining at 5 uM pretreated with NADPH and measured after 15 mins by UPLC-MS/MS analysis; type: ADME, microsomes, Canis lupus familiaris; settings: liver microsome S9 fraction, read-out: Stability
CYP450 [18] = test: Drug metabolism in dog liver microsome S9 fraction assessed as CYP450-mediated metabolism by measuring compound remaining at 5 uM pretreated with NADPH and measured after 30 mins by UPLC-MS/MS analysis; type: ADME, microsomes, Canis lupus familiaris; settings: liver microsome S9 fraction, read-out: Stability
UGT [19] = test: Drug metabolism in dog liver microsome S9 fraction assessed as UGT-mediated metabolism by measuring compound remaining at 5 uM pretreated with UDPGA and measured after 30 mins by UPLC-MS/MS analysis; type: ADME, microsomes, Canis lupus familiaris; settings: liver microsome S9 fraction, read-out: Stability
CYP450 [20] = test: Drug metabolism in dog liver microsome S9 fraction assessed as CYP450-mediated metabolism by measuring compound remaining at 5 uM pretreated with NADPH and measured after 60 mins by UPLC-MS/MS analysis; type: ADME, microsomes, Canis lupus familiaris; settings: liver microsome S9 fraction, read-out: Stability
UGT [21] = test: Drug metabolism in dog liver microsome S9 fraction assessed as UGT-mediated metabolism by measuring compound remaining at 5 uM pretreated with UDPGA and measured after 15 mins by UPLC-MS/MS analysis; type: ADME, microsomes, Canis lupus familiaris; settings: liver microsome S9 fraction, read-out: Stability
UGT [22] = test: Drug metabolism in dog liver microsome S9 fraction assessed as UGT-mediated metabolism by measuring compound remaining at 5 uM pretreated with UDPGA and measured after 60 mins by UPLC-MS/MS analysis; type: ADME, microsomes, Canis lupus familiaris; settings: liver microsome S9 fraction, read-out: Stability
Cytochrome P450 (family) [23] = biological target: T1, Cytochrome P450 (family); test: Drug metabolism in human liver microsome S9 fraction assessed as CYP450-mediated metabolism by measuring compound remaining at 5 uM pretreated with NADPH and measured after 30 mins by UPLC-MS/MS analysis; type: ADME, microsomes; settings: liver microsome S9 fraction, read-out: Stability
Cytochrome P450 (family) [24] = biological target: T1, Cytochrome P450 (family); test: Drug metabolism in human liver microsome S9 fraction assessed as CYP450-mediated metabolism by measuring compound remaining at 5 uM pretreated with NADPH and measured after 60 mins by UPLC-MS/MS analysis; type: ADME, microsomes; settings: liver microsome S9 fraction, read-out: Stability
[25] = biological target: T2, UDP-glucuronosyltransferases (UGTs) (family) (Homo sapiens, UniProt O60656+O75310+O75795+P06133+P0DTE4+P0DTE5+P16662+P19224+P22309+P22310+P35503+P35504+P36537+P54855+Q6UWM9+Q9BY64+Q9HAW7+Q9HAW8+Q9HAW9); test: Drug metabolism in human liver microsome S9 fraction assessed as UGT-mediated metabolism by measuring compound remaining at 5 uM pretreated with UDPGA and measured after 15 mins by UPLC-MS/MS analysis; type: ADME, microsomes; settings: liver microsome S9 fraction, read-out: Stability
[26] = biological target: T2, UDP-glucuronosyltransferases (UGTs) (family); test: Drug metabolism in human liver microsome S9 fraction assessed as UGT-mediated metabolism by measuring compound remaining at 5 uM pretreated with UDPGA and measured after 30 mins by UPLC-MS/MS analysis; type: ADME, microsomes; settings: liver microsome S9 fraction, read-out: Stability
[27] = biological target: T2, UDP-glucuronosyltransferases (UGTs) (family); test: Drug metabolism in human liver microsome S9 fraction assessed as UGT-mediated metabolism by measuring compound remaining at 5 uM pretreated with UDPGA and measured after 60 mins by UPLC-MS/MS analysis; type: ADME, microsomes; settings: liver microsome S9 fraction, read-out: Stability
Trypanosoma cruzi [28] = test: Antiparasitic activity against Trypanosoma cruzi Y strain bloodstream trypomastigotes infected in Swiss Webster mouse assessed as decrease in parasitemia at 25 mg/kg, po bid via gavage administered for 5 consecutive days measured at day 8 post infection by direct microscopic counting relative to control; type: functional; design: scale not given: the % may be the effect or the level left
Trypanosoma cruzi [29] = test: Trypanocidal activity against Trypanosoma cruzi Y strain bloodstream trypomastigotes isolated from infected Swiss mouse […] assessed as parasite death after 24 hrs by neubauer chamber based light microscopy; type: functional, organism-based
Trypanosoma cruzi [30] = test: Trypanocidal activity against Trypanosoma cruzi Y strain intracellular amastigotes infected in mouse cardiac cells assessed as parasite death after 168 hrs by Giemsa-staining based assay; type: functional, organism-based
[31] = Cytotoxicity against Swiss mouse embryonic cardiomyocytes assessed as reduction in cell viability after 24 hrs by prestoblue-staining based colorimetry; settings: Cardiac muscle cell
[32] = Toxicity in Swiss Webster mouse infected with Trypanosoma cruzi Y strain bloodstream trypomastigotes assessed as weight loss at 25 mg/kg, po bid via gavage administered for 5 consecutive days measured at day 40 post infection; type: organism-based; settings: in vivo
Trypanosoma cruzi [33] = test: Antiparasitic activity against Trypanosoma cruzi Y strain bloodstream trypomastigotes infected in Swiss Webster mouse assessed as protection against parasite-induced mortality by measuring survivial at 25 mg/kg, po bid via gavage administered for 5 consecutive days starting from day 5 post infection measured at day 40 post infection relative to control; type: functional
[34] = Cytotoxicity against Swiss mouse embryonic cardiomyocytes assessed as reduction in cell contractibillity at 2 uM after 24 hrs by light microscopy; settings: cardiac muscle cell
Trypanosoma cruzi [35] = test: Antiparasitic activity against Trypanosoma cruzi Y strain bloodstream trypomastigotes infected in Swiss Webster mouse at 25 mg/kg, po bid via gavage administered for 5 consecutive days starting from day 5 post infection followed by cyclophosphamide-induced immunosuppression on day 40 post infection for 4 consecutive days; type: functional, organism-based
Trypanosoma cruzi [36] = test: Antiparasitic activity against Trypanosoma cruzi Tulahuen intracellular amastigotes by beta-galactosidase reporter gene assay; type: functional, organism-based

Nc1ncnc2c1c(-c1ccc(Cl)cc1)cn2[C@@H]1O[C@H](CO)[C@@H](O)[C@H]1O
remaining at 0.25 h, 5 µM (Cytochrome P450 (family) [1]): 113%
selectivity ratio [2]: 57
EC50 (Trypanosoma cruzi [3]): 470 nM
EC50 [4]: 27000 nM
remaining at 0.25 h, 5 µM (CYP450 [5]): 110%
remaining at 0.5 h, 5 µM (CYP450 [6]): 95%
remaining at 1 h, 5 µM (CYP450 [7]): 102%
Stability [8]: 124%
remaining at 0.5 h, 5 µM (UGT [9]): 110%
remaining at 1 h, 5 µM (UGT [10]): 106%
Stability [11]: 122%
remaining at 0.5 h, 5 µM (CYP450 [12]): 104%
remaining at 1 h, 5 µM (CYP450 [13]): 106%
remaining at 0.25 h, 5 µM (UGT [14]): 100%
remaining at 0.5 h, 5 µM (UGT [15]): 93%
remaining at 1 h, 5 µM (UGT [16]): 93%
remaining at 0.25 h, 5 µM (CYP450 [17]): 93%
remaining at 0.5 h, 5 µM (CYP450 [18]): 96%
remaining at 0.5 h, 5 µM (UGT [19]): 70%
remaining at 1 h, 5 µM (CYP450 [20]): 98%
remaining at 0.25 h, 5 µM (UGT [21]): 84%
remaining at 1 h, 5 µM (UGT [22]): 55%
remaining at 0.5 h, 5 µM (Cytochrome P450 (family) [23]): 93%
remaining at 1 h, 5 µM (Cytochrome P450 (family) [24]): 86%
remaining at 0.25 h, 5 µM [25]: 99%
remaining at 0.5 h, 5 µM [26]: 96%
remaining at 1 h, 5 µM [27]: 91%
Activity (Trypanosoma cruzi [28]): >99.8%
EC50 (Trypanosoma cruzi [29]): > 20000 nM
EC50 (Trypanosoma cruzi [30]): 29 nM
EC50 [31]: 274000 nM
Activity [32]: Non-Toxic
Activity (Trypanosoma cruzi [33]): 100%
Activity [34]: Toxic
Activity (Trypanosoma cruzi [35]): inactive

CN(C)c1ncnc2c1ncn2[C@@H]1O[C@H](CO)[C@@H](N)[C@H]1O [PUROMYCIN AMINONUCLEOSIDE]
EC50 (Trypanosoma cruzi [36]): 1000 nM
